The term MIC denotes the lowest concentration found to suppress growth. Read a low MIC as greater potency. One may read the MIC90 as an inhibitory concentration at the 90% level, which refers to growth in some studies and to a panel of isolates in others. As usually defined, the IC50 is the concentration that inhibits the measured activity by half. A high value points to weaker potency. Broadly, the fraction unbound is free concentration divided by total concentration. As usually defined, the clearance is a measure of how efficiently the substance is removed, as volume per time. The half-life is the time in which the quantity being followed falls by half.

Results on twelve compounds are retold here after ChEMBL document CHEMBL4033742, “Novel 3-fluoro-6-methoxyquinoline derivatives as inhibitors of bacterial DNA gyrase and topoisomerase IV” (Bioorg Med Chem Lett, 2017).

Data set [1] deals with Staphylococcus aureus. The data set can be described thus: Antibacterial activity against fluoroquinolone-sensitive Staphylococcus aureus 1146. The class given is functional.
The test system of data set [2] is Staphylococcus aureus. In words: Antibacterial activity against Staphylococcus aureus containing DNA gyrase M121K mutations. The class given is functional.
Data set [3] relates to Staphylococcus aureus. In words: Antibacterial activity against fluoroquinolone-resistant Staphylococcus aureus 1095. The class given is functional.
Data set [4] relates to Staphylococcus aureus. The data set can be described thus: Antibacterial activity against Staphylococcus aureus. The class given is functional.
A short description of data set [5]: Inhibition of Staphylococcus aureus DNA topoisomerase 4.
Another data set deals with Streptococcus pyogenes. In words: Antibacterial activity against Streptococcus pyogenes. The class given is functional.
Data set [6] is described as follows: Inhibition of Staphylococcus aureus DNA gyrase.
Data set [7] concerns Staphylococcus aureus. The data set can be described thus: Antibacterial activity against Staphylococcus aureus containing DNA gyrase D83N mutations. The class given is functional.
Data set [8] can be described thus: Ratio of fAUC in fluoroquinolone-resistant Staphylococcus aureus infected mouse neutropenic thigh model to MIC for fluoroquinolone-resistant Staphylococcus aureus.
Data set [9] deals with Staphylococcus aureus. The data set can be described thus: Antibacterial activity against fluoroquinolone-resistant Staphylococcus aureus infected in mouse neutropenic thigh model assessed as static dose required for bacterial stasis. The class given is functional.
The nature of data set [10]: Stability assessed as increase in metabolism rate under in-vitro conditions. The class given is physicochemical.
The nature of data set [11]: Fraction unbound in mouse plasma. The class given is ADME, cell-free.
A short description of data set [12]: Volume of distribution at steady state in rat at 2 mg/kg, iv. The class given is ADME, organism-based. The following applies: in vivo, read-out: Vdss.
The nature of data set [13]: Fraction unbound in human plasma. The class given is ADME, cell-free.
The nature of data set [14]: Clearance in mouse at 10 mg/kg, iv. As to conditions: in vivo. The class given is ADME, organism-based.
The target of data set [15] is Voltage-gated inwardly rectifying potassium channel KCNH2 (Homo sapiens, UniProt Q12809). The data set can be described thus: Inhibition of human ERG.
Data set [16] in a line: Fraction unbound in rat plasma. The class given is ADME, cell-free.
Data set [17] can be described thus: Volume of distribution at steady state in mouse at 10 mg/kg, iv. The class given is ADME, organism-based. As to conditions: in vivo, read-out: Vdss.
Data set [18] in a line: Half life in rat at 2 mg/kg, iv. The class given is ADME, organism-based. The following applies: in vivo.
Data set [19] in a line: Clearance in rat at 2 mg/kg, iv. The class given is ADME, organism-based. The following applies: in vivo.
Data set [20] can be described thus: Half life in mouse at 10 mg/kg, iv. The class given is ADME, organism-based. As to conditions: in vivo.

Values after ≈ are worked out from the molar mass of the structure shown.

Chain of Voltage-gated inwardly rectifying potassium channel KCNH2 (Q12809 whole entry): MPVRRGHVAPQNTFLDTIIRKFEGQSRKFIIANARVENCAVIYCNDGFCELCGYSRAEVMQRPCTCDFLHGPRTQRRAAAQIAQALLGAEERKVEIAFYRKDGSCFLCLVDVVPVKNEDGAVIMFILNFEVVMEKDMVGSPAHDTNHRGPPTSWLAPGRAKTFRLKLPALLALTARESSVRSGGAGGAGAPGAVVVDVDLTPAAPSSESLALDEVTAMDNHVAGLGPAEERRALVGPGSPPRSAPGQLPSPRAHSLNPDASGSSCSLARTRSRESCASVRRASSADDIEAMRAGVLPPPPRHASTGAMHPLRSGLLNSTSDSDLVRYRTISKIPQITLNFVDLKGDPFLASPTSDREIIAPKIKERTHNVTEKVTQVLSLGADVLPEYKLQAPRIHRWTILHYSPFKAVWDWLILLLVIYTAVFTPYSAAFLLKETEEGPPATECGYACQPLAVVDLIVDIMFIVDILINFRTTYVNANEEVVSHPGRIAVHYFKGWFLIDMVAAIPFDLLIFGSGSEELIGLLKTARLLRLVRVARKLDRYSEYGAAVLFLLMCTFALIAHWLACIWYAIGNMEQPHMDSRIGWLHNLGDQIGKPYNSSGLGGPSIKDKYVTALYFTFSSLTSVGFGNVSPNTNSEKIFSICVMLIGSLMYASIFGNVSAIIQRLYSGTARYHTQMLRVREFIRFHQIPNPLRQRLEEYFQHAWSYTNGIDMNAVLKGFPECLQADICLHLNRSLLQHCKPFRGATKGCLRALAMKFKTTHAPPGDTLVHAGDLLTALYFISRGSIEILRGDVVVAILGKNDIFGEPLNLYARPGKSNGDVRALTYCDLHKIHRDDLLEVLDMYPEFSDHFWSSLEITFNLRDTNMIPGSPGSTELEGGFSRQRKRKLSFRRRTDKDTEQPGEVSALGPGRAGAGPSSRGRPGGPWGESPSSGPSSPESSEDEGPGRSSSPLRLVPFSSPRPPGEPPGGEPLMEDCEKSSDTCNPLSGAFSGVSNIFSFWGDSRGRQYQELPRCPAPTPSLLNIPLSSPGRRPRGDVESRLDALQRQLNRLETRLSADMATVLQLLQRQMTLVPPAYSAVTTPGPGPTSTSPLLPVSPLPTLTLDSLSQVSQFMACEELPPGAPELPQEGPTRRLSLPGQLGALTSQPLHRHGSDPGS

Turning to `COc1ccc2ncc(F)c([C@@H](O)CC[C@@H]3CCN(C4CC(c5ccc(F)s5)C4)C[C@@H]3C(=O)O)c2c1` (stereo not given in full), the MIC is at most 0.0625 µg/mL in the data set on Staphylococcus aureus [1], 16 µg/mL (≈ 31 µM) against Staphylococcus aureus [2], at most 0.0625 µg/mL in the data set with Staphylococcus aureus [3] and 16 µg/mL (≈ 31 µM) in the data set on Staphylococcus aureus [7]. The MIC90 came to 0.125 µg/mL (≈ 0.242 µM) against Staphylococcus aureus [4] and 0.5 µg/mL (≈ 0.968 µM) with Streptococcus pyogenes. For the same compound, the IC50 worked out at 19 µM in data set [5] and 0.78 µM in data set [6].

Consider `COc1ccc2ncc(F)c([C@@H](O)CC[C@@H]3CCN(C4CC(c5ccccc5F)C4)C[C@@H]3C(=O)O)c2c1` (stereo not given in full), for which the MIC with Staphylococcus aureus [1] was at most 0.0625 µg/mL; in the data set with Staphylococcus aureus [2], 16 µg/mL (≈ 31.3 µM); with Staphylococcus aureus [3], 0.125 µg/mL (≈ 0.245 µM); against Staphylococcus aureus [7], 16 µg/mL (≈ 31.3 µM). Further, the figures for the MIC90 against Staphylococcus aureus [4] and in the data set on Streptococcus pyogenes were 0.125 µg/mL (≈ 0.245 µM) and 0.5 µg/mL (≈ 0.979 µM), respectively. Besides, the concentration for half-maximal inhibition (IC50) in data set [5] is 19 µM; in data set [6], 0.78 µM.

For the compound `COc1ccc2nccc([C@@H](O)CC[C@@H]3CCN(C4CC(c5c(F)cccc5F)C4)C[C@@H]3C(=O)O)c2c1` (stereo not given in full), the IC50 in [5] was 100 to 120 µM; in data set [6], 2.93 µM.

Turning to `COc1ccc2ncc(F)c(C[C@H](O)[C@@H]3CC[C@@H](NCc4cc5c(nn4)OCCS5)CO3)c2n1`, the Ratio in data set [8] was determined as 43.

Take `COc1ccc2nccc([C@@H](O)CC[C@@H]3CCN(C4CC(c5cc(F)ccc5F)C4)C[C@@H]3C(=O)O)c2c1` (stereo not given in full): the concentration for half-maximal inhibition (IC50) worked out at 9.62 µM in data set [5] and 3 µM in data set [6].

As for `CN[C@H](CC(C)C)C(=O)N[C@H]1C(=O)N[C@@H](CC(N)=O)C(=O)N[C@H]2C(=O)N[C@H]3C(=O)N[C@H](C(=O)N[C@H](C(=O)O)c4cc(O)cc(O)c4-c4cc3ccc4O)[C@H](O)c3ccc(c(Cl)c3)Oc3cc2cc(c3O[C@@H]2O[C@H](CO)[C@@H](O)[C@H](O)[C@H]2O[C@H]2C[C@](C)(N)[C@H](O)[C@H](C)O2)Oc2ccc(cc2Cl)[C@H]1O` [VANCOMYCIN], the Activity with Staphylococcus aureus [9] was 29 mg/kg/day.

Consider `COc1ccc2ncc(F)c([C@@H](O)CC[C@@H]3CCN(CCSc4cccs4)C[C@@H]3C(=O)O)c2c1`, for which the values for the IC50 in data set [5] and in [6] were 30.4 µM and 1.56 µM, respectively.

As to `COc1ccc2ncc(F)c([C@@H](O)CC[C@@H]3CCN(C4CC(c5cc(F)cc(F)c5F)C4)C[C@@H]3C(=O)O)c2c1` (stereo not given in full), the MIC in the data set on Staphylococcus aureus [1] was at most 0.0625 µg/mL; against Staphylococcus aureus [2] it was 2 µg/mL (≈ 3.66 µM); in the data set with Staphylococcus aureus [3], at most 0.0625 µg/mL; against Staphylococcus aureus [7], 1 µg/mL (≈ 1.83 µM). For the same compound, the figures for the IC50 in [5] and in data set [6] were 4.7 µM and 1.56 µM, respectively. The Stability result in data set [10] is “Unstable”.

Take `COc1ccc2ncc(F)c([C@@H](O)CC[C@@H]3CCN(C4CC(c5ccccc5)C4)C[C@@H]3C(=O)O)c2c1` (stereo not given in full): the MIC came to 0.069 µg/mL (≈ 0.14 µM) in the data set with Staphylococcus aureus [1], 8 µg/mL (≈ 16.2 µM) in the data set on Staphylococcus aureus [2], 0.125 µg/mL (≈ 0.254 µM) against Staphylococcus aureus [3] and 22.6 µg/mL (≈ 45.9 µM) with Staphylococcus aureus [7]. For the same compound, the fraction unbound in data set [11] lay in the range of 0.15 to 0.158; in data set [13], 0.122 to 0.211; in data set [16], 0.277 to 0.334. Further, the Vd in data set [12] was determined as 1.82 L/kg; in data set [17], 1.01 L/kg. In addition, the Activity in the data set on Staphylococcus aureus [9] is 92.1 mg/kg/day. For the same compound, the clearance was determined as 17.3 mL/min/kg in data set [14] and 18.4 mL/min/kg in data set [19]. Also, the IC50 in [15] was 22.3 µM; in [5], 15.9 µM; in data set [6], 1.15 µM. The results for the MIC90 against Staphylococcus aureus [4] and in the data set on Streptococcus pyogenes were 0.25 µg/mL (≈ 0.508 µM) and 1 µg/mL (≈ 2.03 µM), respectively. For the same compound, the values for the half-life in data set [18] and in [20] were 68.4 min and 40.2 min, respectively.

As to `COc1ccc2ncc(F)c([C@@H](O)CC[C@@H]3CCN(C4CC(c5cncc(F)c5)C4)C[C@@H]3C(=O)O)c2c1` (stereo not given in full), the MIC was 2 µg/mL (≈ 3.91 µM) in the data set on Staphylococcus aureus [1], 32 µg/mL (≈ 62.6 µM) in the data set with Staphylococcus aureus [3] and over 64 µg/mL against Staphylococcus aureus [7]. The IC50 is over 120 µM in [5] and 4.7 µM in data set [6].

Regarding `N#Cc1ccc2ccc(=O)n(CCN3CC[C@H](NCc4cc5c(cn4)OCCO5)[C@H](F)C3)c2c1`, the Ratio in data set [8] is 36.

In the case of `COc1ccc2ncc(F)c([C@@H](O)CC[C@@H]3CCN(C4CC(c5cc(F)ccc5F)C4)C[C@@H]3C(=O)O)c2n1` (stereo not given in full), the MIC is at most 0.0625 µg/mL against Staphylococcus aureus [1], 2.3 µg/mL (≈ 4.34 µM) in the data set with Staphylococcus aureus [2], 0.088 µg/mL (≈ 0.166 µM) in the data set on Staphylococcus aureus [3] and 2.5 µg/mL (≈ 4.72 µM) in the data set with Staphylococcus aureus [7]. Further, the fraction unbound in data set [11] fell in the range of 0.131 to 0.242; in data set [13], 0.036 to 0.037; in data set [16], 0.121 to 0.189. For the same compound, the Vd is 1.89 L/kg in [12] and 0.825 L/kg in data set [17]. For the same compound, the Activity in the data set with Staphylococcus aureus [9] is 80.7 mg/kg/day. For the same compound, the clearance in data set [14] was found to be 34 mL/min/kg; in data set [19], 32.7 mL/min/kg. For the same compound, the IC50 turned out to be 45 µM in data set [15], 5.09 µM in data set [5] and 1.43 µM in data set [6]. Further, the values for the MIC90 with Staphylococcus aureus [4] and against Streptococcus pyogenes were 0.125 to 0.25 µg/mL (≈ 0.236 to 0.472 µM) and 0.5 to 1 µg/mL (≈ 0.944 to 1.89 µM), respectively. The results for the half-life in [18] and in data set [20] were 40.2 min and 16.8 min, respectively.
